Patent US20250154154A1 (Relay Binney Street, 2nd Floor, priority 2020, published 2025)

What was measured:
SRC = SRC (Homo sapiens, UniProt P12931); experiment: SRC Biochemical Assay Protocol (microfluidic mobility shift assay, FLPeptide4 substrate)
Method in brief: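 Recombinant SRC (0.26 nM) preincubated 30 min at RT with compound (0.0017–100 μM) and 1.5 μM FLPeptide4, then 50 μM ATP added; 90 min reaction in HEPES pH 7.4, 10 mM MgCl2, 1% DMSO, EDTA-quenched. Phosphopeptide quantified by microfluidic mobility shift; IC50 from 4-parameter logistic fit.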

RBE cells = experiment: Cell Viability Protocol (CellTiterGlo), RBE cells; assay type: cell-based; conditions: RBE or SNU-1079 cells, 72 or 120 hour, cell line and time not given
Protocol: RBE or SNU-1079 cells were cultured in T-75 or T-175 flasks at 37° C., 5% CO2, 95% relative humidity in RPMI 1640 medium with 10% FBS and 1% Penicillin/Streptomycin (media) and detached with 0.25% trypsin/EDTA at 80-90% confluency. Cells were then seeded in 40 μL media per well in 384-well flat-bottom polystyrene microplates (Corning Cat. No. 3570) at a seeding density of 1200 cells/well and incubated for 24 hours at 37° C. with 5% CO2, 95% relative humidity. On the next day, test compounds were prepared in 10 mM DMSO stock solution and diluted to the indicated concentrations in a 384-well compound source plate. DMSO was employed as a vehicle control. Compounds (40 nL) were transferred to 384-well cell culture plate(s) using the liquid handler Echo550. Plates were incubated at 37° C. with 5% CO2 for 72 hour or 120 hour (as indicated). CellTiterGlo reagent was warmed to 37° C. and added into each well (40 μL per well). Plates were incubated at room temperature for 30 min followed by reading on the EnSpire or EnVision plate reader. Relative viability (% remaining activity) was calculated relative to DMSO control and IC50 values were obtained from dose-response data fitted to a 4-parameter curve.

Row | Molecule | IC50 (SRC) | IC50 (RBE cells)
1 | CC(C)n1c(C#CC2CN(C(=O)CCl)C2)c(-c2ccc(Oc3ccccc3)cc2)c2c(N)ncnc21 [Example I-6] | ≤ 0.01 µM | 0.01 to 1 µM
2 | C=CC(=O)N1CCC(C#Cc2c(-c3ccc(Oc4ccccc4)cc3)c3c(N)ncnc3n2C(C)C)CC1 [Example I-8, 1-(4-((4-amino-7-isopropyl-5-(4-phenoxyphenyl)-7H-pyrrolo[2,3-d]pyrimidin-6-yl)ethynyl)piperidin-1-yl)prop-2-en-1-one] | 0.01 to 1 µM | 0.01 to 1 µM
3 | CC(C)n1c(C#CC2CCN(C(=O)CCl)CC2)c(-c2ccc(Oc3ccccc3)cc2)c2c(N)ncnc21 [Example I-29] | 0.01 to 1 µM | 0.01 to 1 µM
4 | C=CC(=O)N1CCC(C#Cc2c(-c3ccc(Oc4ccccc4)cc3)c3c(N)ncnc3n2C(C)C)(OC)CC1 [Example I-35] | 0.01 to 1 µM | 0.01 to 1 µM
5 | C=CC(=O)N1CCC(C#Cc2c(-c3ccc(Oc4ccccc4)cc3)c3c(N)ncnc3n2C2CCOCC2)CC1 [Example I-41, 1-(4-((4-amino-5-(4-phenoxyphenyl)-7-(tetrahydro-2H-pyran-4-yl)-7H-pyrrolo[2,3-d]pyrimidin-6-yl)ethynyl)piperidin-1-yl)prop-2-en-1-one] | 0.01 to 1 µM | 0.01 to 1 µM
6 | CC(C)n1c(C#CC2CCN(C(=O)/C=C/CN(C)C)CC2)c(-c2ccc(Oc3ccccc3)cc2)c2c(N)ncnc21 [Example I-48, (E)-1-(4-((4-amino-7-isopropyl-5-(4-phenoxyphenyl)-7H-pyrrolo[2,3-d]pyrimidin-6-yl)ethynyl)piperidin-1-yl)-4-(dimethylamino)but-2-en-1-one] | 0.01 to 1 µM | 0.01 to 1 µM
7 | C=CC(=O)N1CCC(C#Cc2c(-c3ccc(Oc4ccccc4)cn3)c3c(N)ncnc3n2C(C)C)CC1 [Example I-55] | 0.01 to 1 µM | 0.01 to 1 µM
8 | C=CC(=O)N1CCC(C#Cc2c(-c3ccc(Oc4ccccc4)cc3)c3c(N)ncnc3n2C(C)c2noc(COC)n2)CC1 (stereo not shown) [Example I-58] | 0.01 to 1 µM | 0.01 to 1 µM
9 | C=CC(=O)N1CCC(C#Cc2c(-c3ccc(Oc4ccccc4)cc3)c3c(N)ncnc3n2C(C)c2ncon2)CC1 (stereo not shown) [Example I-59] | 0.01 to 1 µM | 0.01 to 1 µM
10 | C=CC(=O)N1CCC(C#Cc2c(-c3ccc(Oc4ccccc4)cc3)c3c(N)ncnc3n2C2CCCNC2)CC1 (stereo not shown) [Example I-60] | 0.01 to 1 µM | 0.01 to 1 µM
11 | C=CC(=O)N1CCC(C#Cc2c(-c3ccc(Oc4ccccc4F)cc3)c3c(N)ncnc3n2C2CCOC2)CC1 (stereo not shown) [Example I-62] | 0.01 to 1 µM | 0.01 to 1 µM
12 | C=CC(=O)N1CCC(O)(C#Cc2c(-c3ccc(Oc4ccccc4)cc3)c3c(N)ncnc3n2C)CC1 [Example I-63] | 0.01 to 1 µM | 0.01 to 1 µM
13 | C=CC(=O)N1CCC(C#Cc2cn3ncnc(N)c3c2-c2ccc(Oc3ccccc3)cc2)CC1 [Example I-64] | 0.01 to 1 µM | 1 to 10 µM
14 | C=CC(=O)N1CCC(C#Cc2c(-c3cnc(Oc4ccccc4)cn3)c3c(N)ncnc3n2C(C)C)CC1 [Example I-65] | 0.01 to 1 µM | 0.01 to 1 µM
15 | C=CC(=O)N1CCC(O)(C#Cc2c(-c3ccc(Oc4ccccc4F)cc3)c3c(N)ncnc3n2C)CC1 [Example I-66] | 0.01 to 1 µM | 0.01 to 1 µM
16 | CN(C)C/C=C/C(=O)N1CC(C#Cc2c(-c3ccc(Oc4ccccc4)cc3)c3c(N)ncnc3n2C2CCOC2)C1 (stereo not shown) [Example I-67] | 0.01 to 1 µM | 0.01 to 1 µM

Row | Molecule | IC50 (SRC) | IC50 (RBE cells)
17 | CN(C)C/C=C/C(=O)N1CCC(O)(C#Cc2c(-c3ccc(Oc4ccccc4)cc3)c3c(N)ncnc3n2C2CCOC2)CC1 (stereo not shown) [Example I-68] | 0.01 to 1 µM | 0.01 to 1 µM
18 | C=CC(=O)N1CCC(C#Cc2c(-c3ccc(Oc4ccccc4)cc3)c3c(N)ncnc3n2C2CC(O)C2)CC1 (stereo not shown) [Example I-69] | 0.01 to 1 µM | 0.01 to 1 µM
19 | C=CC(=O)N1CCC(O)(C#Cc2c(-c3ccc(Oc4ccccc4)cc3)c3c(N)ncnc3n2C2CCOC2)CC1 (stereo not shown) [Example I-70] | ≤ 0.01 µM | ≤ 0.01 µM
20 | C=CC(=O)NC1CC(C#Cc2c(-c3ccc(Oc4ccccc4)cc3)c3c(N)ncnc3n2C2CCOC2)C1 (stereo not shown) [Example I-71] | 0.01 to 1 µM | ≤ 0.01 µM
21 | CN(C)C/C=C/C(=O)N1C[C@@H]2[C@@H](C#Cc3c(-c4ccc(Oc5cccc(F)c5)cc4)c4c(N)ncnc4n3C)[C@@H]2C1 [II-43] | 0.01 to 1 µM | ≤ 0.01 µM
22 | Cc1cccc(Oc2ccc(-c3c(C#C[C@@H]4[C@H]5CN(C(=O)/C=C/CN(C)C)C[C@@H]45)n(C)c4ncnc(N)c34)cc2)n1 [II-46] | 0.01 to 1 µM | 0.01 to 1 µM
23 | COc1cc(-c2c(C#C[C@@H]3[C@H]4CN(C(=O)/C=C/CN5CCC(F)C5)C[C@@H]34)n(C)c3ncnc(N)c23)ccc1Oc1ccccn1 (stereo partly shown) [II-47] | 0.01 to 1 µM | 0.01 to 1 µM
24 | CC(C)n1c(C#CC2CCNCC2)c(-c2ccc(Oc3ccccc3)cc2)c2c(N)ncnc21 [II-137, 7-isopropyl-5-(4-phenoxyphenyl)-6-(piperidin-4-ylethynyl)-7H-pyrrolo[2,3-d]pyrimidin-4-amine] | ≤ 0.01 µM | 1 to 10 µM
25 | CC(C)n1c(C#CC2CCC(C(=O)O)CC2)c(-c2ccc(Oc3ccccc3)cc2)c2c(N)ncnc21 (stereo not shown) [II-138, 4-((4-amino-7-isopropyl-5-(4-phenoxyphenyl)-7H-pyrrolo[2,3-d]pyrimidin-6-yl)ethynyl) cyclohexanecarboxylic acid] | ≤ 0.01 µM | 0.01 to 1 µM
26 | CC(=O)N1CCC(C#Cc2c(-c3ccc(Oc4ccccc4)cc3)c3c(N)ncnc3n2C(C)C)CC1 [II-139, 1-(4-((4-amino-7-isopropyl-5-(4-phenoxyphenyl)-7H-pyrrolo[2,3-d]pyrimidin-6-yl)ethynyl)piperidin-1-yl)ethanone] | 0.01 to 1 µM | 0.01 to 1 µM
27 | CC(C)n1c(C#CC2CCN(S(C)(=O)=O)CC2)c(-c2ccc(Oc3ccccc3)cc2)c2c(N)ncnc21 [II-140, 7-isopropyl-6-((1-(methylsulfonyl)piperidin-4-yl)ethynyl)-5-(4-phenoxyphenyl)-7H-pyrrolo[2,3-d]pyrimidin-4-amine] | 0.01 to 1 µM | 0.01 to 1 µM
28 | CC(C)N1CCC(C#Cc2c(-c3ccc(Oc4ccccc4)cc3)c3c(N)ncnc3n2C(C)C)CC1 [II-142, 7-isopropyl-6-((1-isopropylpiperidin-4-yl)ethynyl)-5-(4-phenoxyphenyl)-7H-pyrrolo[2,3-d]pyrimidin-4-amine] | ≤ 0.01 µM | 0.01 to 1 µM
29 | CC(C)n1c(C#CC2CCN(C(CO)c3ccccc3)CC2)c(-c2ccc(Oc3ccccc3)cc2)c2c(N)ncnc21 (stereo not shown) [II-143, 2-(4-((4-amino-7-isopropyl-5-(4-phenoxyphenyl)-7H-pyrrolo[2,3-d]pyrimidin-6-yl)ethynyl)piperidin-1-yl)-2-phenylethanol] | 0.01 to 1 µM | 1 to 10 µM
30 | CC(c1ccccc1)N1CCC(C#Cc2c(-c3ccc(Oc4ccccc4)cc3)c3c(N)ncnc3n2C(C)C)CC1 (stereo not shown) [II-144, 7-isopropyl-5-(4-phenoxyphenyl)-6-((1-(1-phenylethyl)piperidin-4-yl)ethynyl)-7H-pyrrolo[2,3-d]pyrimidin-4-amine] | 0.01 to 1 µM | 1 to 10 µM
31 | N-[(1r,4r)-4-[2-[4- amino-7-(2- hydroxyethyl)-5- [3-methoxy-4-[(6- methylpyridin-2- yl)oxy]phenyl]- 7H-pyrrolo[2,3- d]pyrimidin-6- yllethynyl] cyclohexyl] prop-2- enamide [II-311] | ≤ 0.01 µM | –
